Reference: patent US20220168430A1, “THERAPEUTIC METHODS FOR TREATING HEPATITIS B” (priority 2019, published 2022)
Like-named read-outs stand apart in the source and are kept apart here.

Test system: HBV rcDNA
Assay: Dual agent combination in HepDE19 cells, rcDNA by Quantigene 2.0 bDNA assay (Examples 5-8)
Assay type: cell-based, HBV; HepDE19 (HepG2 human hepatocarcinoma derived)
Settings: Hepatitis B virus; for EC50: read-out: Avg. Inhibitor A EC50
Method: In vitro dual agent combination studies were conducted using the method of Prichard and Shipman 1990 (Prichard M N, Shipman C, Jr. 1990. Antiviral Res 14:181-205). The HepDE19 cell culture system is a HepG2 (human hepatocarcinoma) derived cell line that supports HBV DNA replication and cccDNA formation under control the control of a CMV Tet-off promoter system (Guo et al. 2007. J Virol 81:12472-84). HepDE19 (50,000 cells/well) were plated in 96 well collagen-coated tissue-culture treated microtiter plates in DMEM/F12 medium supplemented with 10% fetal bovine serum+1% penicillin-streptomycin with tetracycline (1 μg/mL) and incubated in a humidified incubator at 37° C. and 5% CO2 overnight. Next day, the cells were switched to fresh medium without tetracycline and incubated for 4 hrs at 37° C. and 5% CO2. The cells were switched to fresh medium and treated with inhibitor A and inhibitor B, at concentration range spanning their respective EC50 values. […] The two inhibitors were tested both singly as well as in combinations in a checkerboard fashion such that each concentration of inhibitor A was combined with each concentration of inhibitor B to determine their combination effects on inhibition of rcDNA production. There were four replicates of each concentration combination in each experiment. The plates were incubated for 7 days in a humidified incubator at 37° C. and 5% CO2. The level of rcDNA present in the wells was measured using a Quantigene 2.0 bDNA assay kit (Affymetrix, Santa Clara, Calif.) with HBV specific custom probe set (genotype D ayw) and according to the manufacturer's instructions and read using a luminescence plate reader and the relative luminescence units (RLU) data generated from each well was calculated as % inhibition of the untreated control wells and analyzed using the MacSynergy II program to determine whether the combinations were synergistic, additive or antagonistic using the interpretive guidelines established by Prichard and Shipman (Prichard M N, Shipman C, Jr. 1990. […] Each experiment was repeated at least three times and the averages and standard deviations of individual determinations was calculated to derive the conclusion. Concurrently, in each experiment, the effect of inhibitor combinations on cell viability was assessed using replicate plates in triplicates that were used to determine the ATP content as a measure of cell viability using the Cell-Titer Glo reagent (Promega, Madison, Wis.) as per the manufacturer's instructions.

SMILES: Cn1cnc(COC(=O)N[C@H]2CCc3c(C(=O)Nc4ccc(F)c(Cl)c4)ccc(F)c32)n1 [Compound 1]
- inhibition at 0.005 µM (HepDE19, Cmpd 1 0.005 μM, ETV μM by grid row: r7 0.0250, r8 0.0083, r9 0.0028, r10 0.0009, r11 0.0003, r12 0, HepDE19 cells, Expt 1, read-out: AVERAGE % INHIBITION, rcDNA): -5.55%
- inhibition at 0.01 µM (HepDE19, Cmpd 1 0.010 μM, ETV μM by grid row: r7 0.0250, r8 0.0083, r9 0.0028, r10 0.0009, r11 0.0003, r12 0, HepDE19 cells, Expt 1, read-out: AVERAGE % INHIBITION, rcDNA): -2.14%
- inhibition at 0.02 µM (HepDE19, Cmpd 1 0.020 μM, ETV μM by grid row: r7 0.0250, r8 0.0083, r9 0.0028, r10 0.0009, r11 0.0003, r12 0, HepDE19 cells, Expt 1, read-out: AVERAGE % INHIBITION, rcDNA): 20.8%
- inhibition at 0.039 µM (HepDE19, Cmpd 1 0.039 μM, ETV μM by grid row: r7 0.0250, r8 0.0083, r9 0.0028, r10 0.0009, r11 0.0003, r12 0, HepDE19 cells, Expt 1, read-out: AVERAGE % INHIBITION, rcDNA): 28.3%
- inhibition at 0.156 µM (HepDE19, Cmpd 1 0.156 μM, ETV μM by grid row: r7 0.0250, r8 0.0083, r9 0.0028, r10 0.0009, r11 0.0003, r12 0, HepDE19 cells, Expt 1, read-out: AVERAGE % INHIBITION, rcDNA): 82%
- inhibition at 1.25 µM (HepDE19, Cmpd 1 1.25 μM, ETV μM by grid row: r7 0.0250, r8 0.0083, r9 0.0028, r10 0.0009, r11 0.0003, r12 0, HepDE19 cells, Expt 1, read-out: AVERAGE % INHIBITION, rcDNA): 98.9%
- EC50 (HepDE19, Cmpd 1 in combination study with ETV, n = 3): 59 nM
- EC50 (HepDE19, Cmpd 1 in combination study with SIRNA-NP, n = 3): 64 nM
- EC50 (HepDE19, Cmpd 1 in combination study with TAF, n = 4): 74 nM
- EC50 (HepDE19, Cmpd 1 in combination study with TDF, n = 3): 80 nM
- inhibition at 0.005 µM (HepDE19, Expt 1 (with TDF), Compound 1 0.005 μM alone, read-out: ADDITIVE INHIBITION): -44.9%
- inhibition at 0.005 µM (HepDE19, Expt 1 (with TDF), Compound 1 0.005 μM alone, read-out: AVERAGE % INHIBITION): -44.9%
- inhibition at 0.01 µM (HepDE19, Expt 1 (with TDF), Compound 1 0.010 μM alone, read-out: ADDITIVE INHIBITION): -40.7%
- inhibition at 0.01 µM (HepDE19, Expt 1 (with TDF), Compound 1 0.010 μM alone, read-out: AVERAGE % INHIBITION): -40.7%
- inhibition at 0.02 µM (HepDE19, Expt 1 (with TDF), Compound 1 0.020 μM alone, read-out: ADDITIVE INHIBITION): -21.6%
- inhibition at 0.02 µM (HepDE19, Expt 1 (with TDF), Compound 1 0.020 μM alone, read-out: AVERAGE % INHIBITION): -21.6%
- inhibition at 0.039 µM (HepDE19, Expt 1 (with TDF), Compound 1 0.039 μM alone, read-out: ADDITIVE INHIBITION): 0.64%
- inhibition at 0.039 µM (HepDE19, Expt 1 (with TDF), Compound 1 0.039 μM alone, read-out: AVERAGE % INHIBITION): 0.64%
- inhibition at 0.156 µM (HepDE19, Expt 1 (with TDF), Compound 1 0.156 μM alone, read-out: ADDITIVE INHIBITION): 68.2%
- inhibition at 0.156 µM (HepDE19, Expt 1 (with TDF), Compound 1 0.156 μM alone, read-out: AVERAGE % INHIBITION): 68.2%
- inhibition at 1.25 µM (HepDE19, Expt 1 (with TDF), Compound 1 1.250 μM alone, read-out: ADDITIVE INHIBITION): 97.3%
- inhibition at 1.25 µM (HepDE19, Expt 1 (with TDF), Compound 1 1.250 μM alone, read-out: AVERAGE % INHIBITION): 97.3%
- inhibition at 0.007 µM (HepDE19, Expt 1, Cmpd 1 0.007 μM alone, read-out: AVERAGE % INHIBITION): -23.5%
- inhibition at 0.067 µM (HepDE19, Expt 1, Cmpd 1 0.067 μM alone): 43.7%
- inhibition at 0.2 µM (HepDE19, Expt 1, Cmpd 1 0.200 μM alone): 78.4%
- inhibition at 0.6 µM (HepDE19, Expt 1, Cmpd 1 0.600 μM alone): 92.9%
- inhibition at 0.005 µM (HepDE19, Expt 1, Compound 1 0.005 μM alone, read-out: AVERAGE % INHIBITION): -81.7%
- inhibition at 0.01 µM (HepDE19, Expt 1, Compound 1 0.010 μM alone, read-out: AVERAGE % INHIBITION): -86.4%
- inhibition at 0.02 µM (HepDE19, Expt 1, Compound 1 0.020 μM alone, read-out: AVERAGE % INHIBITION): -84.7%
- inhibition at 0.039 µM (HepDE19, Expt 1, Compound 1 0.039 μM alone, read-out: AVERAGE % INHIBITION): -14.2%
- inhibition at 0.156 µM (HepDE19, Expt 1, Compound 1 0.156 μM alone, read-out: AVERAGE % INHIBITION): 59.4%
- inhibition at 1.25 µM (HepDE19, Expt 1, Compound 1 1.250 μM alone, read-out: AVERAGE % INHIBITION): 98.3%
- inhibition at 0.007 µM (HepDE19, Expt 2 (with TDF), Compound 1 0.007 μM alone, read-out: AVERAGE % INHIBITION): -35.1%
- inhibition at 0.067 µM (HepDE19, Expt 2 (with TDF), Compound 1 0.067 μM alone): 28.1%
- inhibition at 0.2 µM (HepDE19, Expt 2 (with TDF), Compound 1 0.200 μM alone): 80.5%
- inhibition at 0.6 µM (HepDE19, Expt 2 (with TDF), Compound 1 0.600 μM alone): 95.2%
- inhibition at 0.005 µM (HepDE19, Expt 2, Cmpd 1 0.005 μM alone, read-out: AVERAGE % INHIBITION): 5.58%
- inhibition at 0.01 µM (HepDE19, Expt 2, Cmpd 1 0.010 μM alone, read-out: AVERAGE % INHIBITION): -0.61%
- inhibition at 0.02 µM (HepDE19, Expt 2, Cmpd 1 0.020 μM alone, read-out: AVERAGE % INHIBITION): 6.6%
- inhibition at 0.039 µM (HepDE19, Expt 2, Cmpd 1 0.039 μM alone, read-out: AVERAGE % INHIBITION): 25.9%
- inhibition at 0.156 µM (HepDE19, Expt 2, Cmpd 1 0.156 μM alone, read-out: AVERAGE % INHIBITION): 84.1%
- inhibition at 1.25 µM (HepDE19, Expt 2, Cmpd 1 1.250 μM alone, read-out: AVERAGE % INHIBITION): 98.3%
